The values that follow come from patent publication US20240239781A1, “1H-PYRAZOLE DERIVATIVES AS SIGMA LIGANDS” (ACONDICIONAMIENTO TARRASENSE, priority 2021, published 2024).

Assay [1] deals with T1, human σ1 receptor (Homo sapiens, UniProt Q99720).
T1 construct: expressed in transfected cells; host or cells: HEK-293
As to the kind of experiment: Human σ1 receptor radioligand assay ([3H](+)-pentazocine, transfected HEK-293 membranes). Conditions: class scale, read-out: Binding σ-1 Ki. The essentials: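 Membranes (7 μg) from transfected HEK-293 cells were incubated with 5 nM [3H](+)-pentazocine in 50 mM Tris-HCl, pH 8, for 120 minutes at 37° C, with 10 μM haloperidol defining non-specific binding. Bound radioactivity was filtered and counted by scintillation. Results are % inhibition at 1 or 10 μM or Ki from five concentrations.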

Assay [2] addresses T2, human σ2/TMEM97 receptor (Homo sapiens, UniProt Q5BJF2).
T2 construct: expressed in transfected cells; host or cells: HEK-293
As to the kind of experiment: Binding assay to human σ2/TMEM97 receptor ([3H]-DTG, transfected HEK-293 membranes). Conditions: class scale, read-out: Binding σ-2 Ki. An outline of the steps:
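Membranes (15 μg) from transfected HEK-293 incubated 120 min at 25 °C with 10 nM [3H]-DTG in 50 mM Tris-HCl pH 8.0; nonspecific binding with 10 μM haloperidol. Filtration and scintillation counting; % inhibition at 1 or 10 μM, or Ki from five concentrations.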

T2 sequence (Q5BJF2 whole entry): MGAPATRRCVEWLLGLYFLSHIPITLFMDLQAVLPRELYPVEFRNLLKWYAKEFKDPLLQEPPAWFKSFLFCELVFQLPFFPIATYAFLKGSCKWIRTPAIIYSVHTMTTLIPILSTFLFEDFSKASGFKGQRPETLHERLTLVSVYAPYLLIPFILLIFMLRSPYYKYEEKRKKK
T1 sequence (Q99720 whole entry): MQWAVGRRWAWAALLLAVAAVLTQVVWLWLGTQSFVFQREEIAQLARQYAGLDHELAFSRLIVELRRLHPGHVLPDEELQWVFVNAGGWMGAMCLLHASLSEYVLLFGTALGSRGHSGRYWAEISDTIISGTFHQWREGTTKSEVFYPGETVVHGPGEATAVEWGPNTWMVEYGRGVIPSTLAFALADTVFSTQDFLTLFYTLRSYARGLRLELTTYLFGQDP

Regarding `CCOc1cccc(-c2nn(C)c(Cl)c2C(=O)N2CCC3(CCN(CCC(C)(C)C)CC3)CC2)n1` [Example 186, (5-Chloro-3-(6-ethoxypyridin-2-yl)-1-methyl-1H-pyrazol-4-yl)(9-(3,3-dimethylbutyl)-3,9-diazaspiro[5.5]undecan-3-yl)methanone], the Ki (commonly the equilibrium dissociation constant of an inhibitor or competing ligand from its target) in assay [1] is 100 to 500 nM; in assay [2] it was less than 100 nM.
As for `COc1cccc(-c2nn(C)c(Cl)c2C(=O)N2CCC3(CCN(CCC(C)(C)C)CC3)CC2)n1` [Example 102, (5-Chloro-3-(6-methoxypyridin-2-yl)-1-methyl-1H-pyrazol-4-yl)(9-(3,3-dimethylbutyl)-3,9-diazaspiro[5.5]undecan-3-yl)methanone], the inhibitory constant (Ki) in assay [1] was 100 to 500 nM; in assay [2], less than 100 nM.
For `Cc1cc(-c2nn(C)c(Cl)c2CN2CCCCC(N(C)CC3CCOCC3)C2)no1` (stereo not shown) [Example 81, 1-((5-Chloro-1-methyl-3-(5-methylisoxazol-3-yl)-1H-pyrazol-4-yl)methyl)-N-methyl-N-((tetrahydro-2H-pyran-4-yl)methyl)azepan-3-amine], the Ki in assay [1] and in assay [2] was 100 to 500 nM throughout.
`Cc1cc(-c2nn(C)c(Cl)c2C(=O)N2CCCC3(CCN(CC(C)(C)C)CC3)C2)no1` [Example 157, (5-Chloro-1-methyl-3-(5-methylisoxazol-3-yl)-1H-pyrazol-4-yl)(9-neopentyl-2,9-diazaspiro[5.5]undecan-2-yl)methanone]: the Ki in assay [1] is more than 1000 nM; in assay [2] it was less than 100 nM.
Consider `Cc1cc(-c2nn(C)c(Cl)c2CN2CCCC(CNCCC(C)C)C2)no1` (stereo not shown) [Example 58, N-((1-((5-Chloro-1-methyl-3-(5-methylisoxazol-3-yl)-1H-pyrazol-4-yl)methyl)piperidin-3-yl)methyl)-3-methylbutan-1-amine], for which the Ki in assay [1] is 100 to 500 nM; in assay [2] it was less than 100 nM.
For `CCCNCC1CCN(Cc2c(-c3cc(C)on3)nn(C)c2Cl)C1` (stereo not shown) [Example 47, N-((1-((5-Chloro-1-methyl-3-(5-methylisoxazol-3-yl)-1H-pyrazol-4-yl)methyl)pyrrolidin-3-yl)methyl)propan-1-amine], in that order: more than 1000 nM and more than 1000 nM.
For `Cn1nc(-c2cc(C3CC3)on2)c(CN2CCCCC(NCCC(C)(C)C)C2)c1Cl` (stereo not shown) [Example 16, 1-((5-Chloro-3-(5-cyclopropylisoxazol-3-yl)-1-methyl-1H-pyrazol-4-yl)methyl)-N-(3,3-dimethylbutyl)azepan-3-amine], in that order: 100 to 500 nM and more than 1000 nM.
The like results for `Cc1cc(-c2nn(C)c(Cl)c2CN2CCCC(CNCc3ccccc3)C2)no1` (stereo not shown) [Example 55, N-Benzyl-1-(1-((5-chloro-1-methyl-3-(5-methylisoxazol-3-yl)-1H-pyrazol-4-yl)methyl)piperidin-3-yl)methanamine] were, in that order, more than 1000 nM and 100 to 500 nM.
As for `Cc1cc(-c2nn(C)c(Cl)c2CN2CCCC[C@@H](NCCC(C)C)C2)no1` [Example 10, (R)-1-((5-Chloro-1-methyl-3-(5-methylisoxazol-3-yl)-1H-pyrazol-4-yl)methyl)-N-isopentylazepan-3-amine], the Ki in assay [1] and in assay [2] was 100 to 500 nM in each case.
On to `CCn1nc(-c2cc(C)on2)c(C(=O)NCCC2CCN(CCC(C)(C)C)CC2)c1Cl` [Example 158, 5-Chloro-N-(2-(1-(3,3-dimethylbutyl)piperidin-4-yl)ethyl)-1-ethyl-3-(5-methylisoxazol-3-yl)-1H-pyrazole-4-carboxamide], for which the inhibition constant Ki in assay [1] was 100 to 500 nM; in assay [2], less than 100 nM.
The like results for `CCn1nc(-c2cccc(C)n2)c(C(=O)NC2CCC3(CC2)CCN(CCC(C)(C)C)CC3)c1Cl` [Example 151, 5-Chloro-N-(3-(3,3-dimethylbutyl)-3-azaspiro[5.5]undecan-9-yl)-1-ethyl-3-(6-methylpyridin-2-yl)-1H-pyrazole-4-carboxamide] were, in that order, less than 100 nM and less than 100 nM.
Take `Cc1cccc(-c2nn(C)c(Cl)c2C(=O)N2CCC3(CCN(CCC(C)(C)C)CC3)CC2)n1` [Example 189, (5-Chloro-1-methyl-3-(6-methylpyridin-2-yl)-1H-pyrazol-4-yl)(9-(3,3-dimethylbutyl)-3,9-diazaspiro[5.5]undecan-3-yl)methanone]: the inhibition constant Ki in assay [1] was 500 to 1000 nM; in assay [2], less than 100 nM.
With `Cc1cc(-c2nn(-c3ccccn3)c(Cl)c2C(=O)N2CCC3(CCN(CCC(C)(C)C)CC3)CC2)no1` [Example 172, (5-Chloro-3-(5-methylisoxazol-3-yl)-1-(pyridin-2-yl)-1H-pyrazol-4-yl)(9-(3,3-dimethylbutyl)-3,9-diazaspiro[5.5]undecan-3-yl)methanone], the Ki in assay [1] is 500 to 1000 nM; in assay [2], less than 100 nM.
On to `CCn1nc(-c2ccon2)c(C(=O)N2CC3(CCN(CCC(C)(C)C)CC3)C2)c1Cl` [Example 187, (5-Chloro-1-ethyl-3-(isoxazol-3-yl)-1H-pyrazol-4-yl)(7-(3,3-dimethylbutyl)-2,7-diazaspiro[3.5]nonan-2-yl)methanone], for which the Ki in assay [1] is 500 to 1000 nM; in assay [2] it was less than 100 nM.
`CCCCNC1CCCCN(Cc2c(-c3cc(C)on3)nn(C)c2Cl)C1` (stereo not shown) [Example 9, N-Butyl-1-((5-chloro-1-methyl-3-(5-methylisoxazol-3-yl)-1H-pyrazol-4-yl)methyl)azepan-3-amine]: the Ki in assay [1] was more than 1000 nM; in assay [2], 500 to 1000 nM.
The like results for `Cc1cc(-c2nn(C)c(Cl)c2CN2CCCC(NCCC(C)(C)C)CC2)no1` (stereo not shown) [Example 23, 1-((5-Chloro-1-methyl-3-(5-methylisoxazol-3-yl)-1H-pyrazol-4-yl)methyl)-N-(3,3-dimethylbutyl)azepan-4-amine] were, in that order, 100 to 500 nM and less than 100 nM.
For `Cc1cc(-c2nn(C)c(Cl)c2CN2CC[C@@H](CNCCc3ccccc3)C2)no1` [Example 72, (S)-N-((1-((5-chloro-1-methyl-3-(5-methylisoxazol-3-yl)-1H-pyrazol-4-yl)methyl)pyrrolidin-3-yl)methyl)-2-phenylethanamine], in that order: 500 to 1000 nM and 100 to 500 nM.
In the case of `Cc1cc(-c2nn(C)c(Cl)c2CN2CCC(CNCc3ccccc3)CC2)no1` [Example 56, N-Benzyl-1-(1-((5-chloro-1-methyl-3-(5-methylisoxazol-3-yl)-1H-pyrazol-4-yl)methyl)piperidin-4-yl)methanamine], the Ki in assay [1] and in assay [2] was 100 to 500 nM in each case.
For `CCn1ccc(-c2nn(C)c(Cl)c2C(=O)N2CCCC3(CCN(CCC(C)(C)C)CC3)C2)n1` [Example 138, (5-Chloro-1′-ethyl-1-methyl-1H,1′H-[3,3′-bipyrazol]-4-yl)(9-(3,3-dimethylbutyl)-2,9-diazaspiro[5.5]undecan-2-yl)methanone], the Ki in assay [1] is 500 to 1000 nM; in assay [2], less than 100 nM.
The like results for `Cc1cccc(-c2nn(C)c(Cl)c2C(=O)NC2CC3(CCN(CCC(C)(C)C)CC3)C2)n1` [Example 141, 5-Chloro-N-(7-(3,3-dimethylbutyl)-7-azaspiro[3.5]nonan-2-yl)-1-methyl-3-(6-methylpyridin-2-yl)-1H-pyrazole-4-carboxamide] were, in that order, less than 100 nM and less than 100 nM.
